Usually IC50 stands for the concentration that inhibits the measured activity by half.

The nature of experiment [1]: DRUGMATRIX: ATPase, Na+/K+ enzyme inhibition (substrate: ATP). The experiment is classed as tissue-based, Sus scrofa, Heart. The following applies: Not Active = under 50% inhibition at 10 µM.
A short description of experiment [2]: DRUGMATRIX: Atrial Natriuretic Factor (ANF) radioligand binding (ligand: [125I] ANF (rat)). As to conditions: Not Active = under 50% inhibition at 10 µM. The format is cell membranes, Cavia porcellus, Dunkin-Hartley, Adrenal gland, Membrane.
The nature of experiment [3]: DRUGMATRIX: Leukotriene, BLT (LTB4) radioligand binding (ligand: [3H]LTB4). The format is cell membranes, Membrane. As to conditions: u-937; Not Active = under 50% inhibition at 10 µM.
In experiment [4] the target is Aldo-keto reductase family 1 member B1 (Rattus norvegicus, UniProt P07943). Nature of the experiment: biochemical. The experiment is classed as tissue-based, Lens of camera-type eye.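 Also: inhibition of aldose reductase enzyme activity, measured with DL-glyceraldehyde as the substrate; in other assays of this panel Not Active means under 50% inhibition at 10 µM.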
Experiment [5] is described as follows: DRUGMATRIX: Purinergic P2X radioligand binding (ligand: [3H] alpha, beta-Methylene-ATP). The experiment is classed as cell membranes, Oryctolagus cuniculus, New Zealand albino, Urinary bladder, Membrane. The following applies: Not Active = under 50% inhibition at 10 µM.
In a further experiment the target is T1, Thromboxane-A synthase (Homo sapiens, UniProt P24557).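 Also: enzyme inhibition assay with PGH2 supplied as substrate; in other assays of this panel Not Active means under 50% inhibition at 10 µM.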
T1 sequence (P24557 whole entry): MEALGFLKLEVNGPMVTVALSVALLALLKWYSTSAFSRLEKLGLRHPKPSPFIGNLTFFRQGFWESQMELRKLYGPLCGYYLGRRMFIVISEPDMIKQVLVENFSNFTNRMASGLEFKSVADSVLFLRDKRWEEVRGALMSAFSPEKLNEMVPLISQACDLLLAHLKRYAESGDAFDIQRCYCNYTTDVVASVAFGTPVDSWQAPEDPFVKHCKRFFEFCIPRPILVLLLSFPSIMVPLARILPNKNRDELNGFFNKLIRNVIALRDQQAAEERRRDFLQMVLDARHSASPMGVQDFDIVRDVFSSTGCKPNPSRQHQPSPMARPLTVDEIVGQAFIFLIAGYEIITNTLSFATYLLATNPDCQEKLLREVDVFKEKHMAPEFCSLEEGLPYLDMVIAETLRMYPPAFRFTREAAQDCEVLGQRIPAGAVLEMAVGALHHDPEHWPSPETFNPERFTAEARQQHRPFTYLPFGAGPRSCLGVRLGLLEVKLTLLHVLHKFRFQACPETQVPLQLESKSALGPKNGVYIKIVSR
Put plainly: biochemical. The experiment is classed as tissue-based, Platelet. The following applies: platelet.

The target of the next experiment is T2, Cathepsin G (Homo sapiens, UniProt P08311).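 Also: inhibition of Cathepsin G enzyme activity, tested on an AMC-conjugated peptide substrate; in other assays of this panel Not Active means under 50% inhibition at 10 µM.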
T2 sequence (P08311 whole entry): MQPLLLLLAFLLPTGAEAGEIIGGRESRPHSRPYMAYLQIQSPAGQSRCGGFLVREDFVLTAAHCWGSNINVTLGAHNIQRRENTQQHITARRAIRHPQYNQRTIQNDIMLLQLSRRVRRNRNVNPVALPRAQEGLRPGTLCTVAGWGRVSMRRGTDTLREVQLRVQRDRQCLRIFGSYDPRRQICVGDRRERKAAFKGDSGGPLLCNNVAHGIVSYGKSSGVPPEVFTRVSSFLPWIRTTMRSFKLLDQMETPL
The experiment is classed as tissue-based. As to conditions: neutrophil.

Experiment [6] addresses C-C chemokine receptor type 2 (Homo sapiens, UniProt P41597). The experiment is classed as cell membranes, CHO-K1, Membrane. The following applies: cho-k1.

Molecules are shown by their SMILES.

Chain of C-C chemokine receptor type 2 (P41597 whole entry): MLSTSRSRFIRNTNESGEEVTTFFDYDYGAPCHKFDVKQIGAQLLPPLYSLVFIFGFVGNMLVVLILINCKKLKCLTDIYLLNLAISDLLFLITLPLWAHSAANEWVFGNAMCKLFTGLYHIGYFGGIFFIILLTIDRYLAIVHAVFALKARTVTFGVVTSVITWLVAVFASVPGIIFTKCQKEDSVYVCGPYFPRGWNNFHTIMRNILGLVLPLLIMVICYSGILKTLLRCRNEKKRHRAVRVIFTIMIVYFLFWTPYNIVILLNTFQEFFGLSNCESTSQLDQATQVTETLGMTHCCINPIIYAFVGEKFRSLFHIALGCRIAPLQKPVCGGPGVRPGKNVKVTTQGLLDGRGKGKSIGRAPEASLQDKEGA

`CC1(C)S[C@@H]2[C@H](NC(=O)Cc3ccccc3)C(=O)N2[C@H]1C(=O)O` [PENICILLIN G]: the IC50 result (in experiment [1]; in experiment [2]; in experiment [3]; in experiment [4]; in experiment [5]; against Thromboxane-A synthase) was “Not Active” in each case. In addition, the IC50 result (at Cathepsin G; in experiment [6]) was “Not Active” in each case. For the same molecule, the Ki result in experiment [1], in experiment [2], in experiment [3] and in experiment [5] was “Not Active” throughout.

For `C[C@H]1O[C@@H](O[C@H]2[C@@H](O)C[C@H](O[C@H]3[C@@H](O)C[C@H](O[C@H]4CC[C@@]5(C)[C@H](CC[C@@H]6[C@@H]5C[C@@H](O)[C@]5(C)[C@@H](C7=CC(=O)OC7)CC[C@]65O)C4)O[C@@H]3C)O[C@@H]2C)C[C@H](O)[C@@H]1O` [DIGOXIN], the IC50 in experiment [1] (read-out: IC50) was 1650 nM; in experiment [2], “Not Active”; in experiment [3], “Not Active”; in experiment [4], “Not Active”; in experiment [5], “Not Active”; against Thromboxane-A synthase it was “Not Active”. For the same molecule, the IC50 entry (against Cathepsin G; in experiment [6]) was “Not Active” each time. The Ki result in experiment [2], in experiment [3] and in experiment [5] was “Not Active” in each case.

As to `c1ccc2c(c1)c1cccc3ccc4cccc2c4c31` [BENZO[E]PYRENE], the IC50 entry (in experiment [1]; in experiment [2]; in experiment [3]; in experiment [4]; in experiment [5]; at Thromboxane-A synthase) was “Not Active” throughout. Moreover, the IC50 result (on Cathepsin G; in experiment [6]) was “Not Active” each time. Further, the Ki result in experiment [1], in experiment [2], in experiment [3] and in experiment [5] was “Not Active” each time.

On to `Sc1ncnc2nc[nH]c12` [MERCAPTOPURINE ANHYDROUS], for which the IC50 result (in experiment [1]; in experiment [2]; in experiment [3]; in experiment [4]; in experiment [5]; against Thromboxane-A synthase) was “Not Active” each time. Moreover, the concentration for half-maximal inhibition (IC50) entry (against Cathepsin G; in experiment [6]) was “Not Active” throughout. The Ki result in experiment [1], in experiment [2], in experiment [3] and in experiment [5] was “Not Active” in each case.

As for `O=c1oc2ccccc2c(O)c1Cc1c(O)c2ccccc2oc1=O` [DICUMAROL], the half-maximal inhibitory concentration (IC50) result in experiment [1] is “Not Active”; in experiment [2] it was “Not Active”; in experiment [3] it was “Not Active”; in experiment [4] (read-out: IC50), 4090 nM; in experiment [5] it was “Not Active”; against Thromboxane-A synthase, “Not Active”. In addition, the IC50 entry (on Cathepsin G; in experiment [6]) was “Not Active” each time. Moreover, the Ki result in experiment [1], in experiment [2], in experiment [3] and in experiment [5] was “Not Active” in each case.

For the molecule `Nc1nc(N)nc(-c2cc(Cl)ccc2Cl)n1.O=C(O)/C=C\C(=O)O` [IRSOGLADINE MALEATE], the IC50 result (in experiment [1]; in experiment [2]; in experiment [3]; in experiment [4]; in experiment [5]; at Thromboxane-A synthase) was “Not Active” each time. For the same molecule, the IC50 entry (at Cathepsin G; in experiment [6]) was “Not Active” throughout. The Ki result in experiment [1], in experiment [2], in experiment [3] and in experiment [5] was “Not Active” each time.

For the molecule `CC1(C)O[C@@H]2C[C@H]3[C@@H]4CCC5=CC(=O)CC[C@]5(C)[C@@]4(F)[C@@H](O)C[C@]3(C)[C@]2(C(=O)CCl)O1` [HALCINONIDE], the IC50 entry (in experiment [1]; in experiment [2]; in experiment [3]; in experiment [4]; in experiment [5]; at Thromboxane-A synthase) was “Not Active” throughout. The IC50 result (on Cathepsin G; in experiment [6]) was “Not Active” in each case. Moreover, the Ki entry in experiment [1], in experiment [2], in experiment [3] and in experiment [5] was “Not Active” in each case.

The values are drawn from ChEMBL document CHEMBL1909046, “DrugMatrix in vitro pharmacology data”.
